# Measurements taken from patent publication US5663333A, “Substituted 1,4-diazapine caprolactams useful for treatment of HIV disease” (The DuPont Merck Pharmaceutical Company, priority 1993, dated 1997).
# Key:
# [1] = system: HIV(3B) or HIV(RF) in MT-2 cells; assay: HIV Low Multiplicity Assay (whole cell infectivity assay); assay type: cell-based; conditions: Human immunodeficiency virus 1, MT2, 168 h, 7 days, XTT, 90% protection from virus induced cell death
# Experimental: Materials: MT-2, a human T-Cell line, was cultured in RPMI medium supplemented with 5% (v/v) heat inactivated fetal calf serum (FCS), L-glutamine and gentamycin (GIBCO). Human immunodeficiency virus strains HIV (3B) and HIV (RF) were propagated in H-9 cells in RPMI with 5% FCS. XTT, benzene-sulfonic acid, 3,3'-[1-[(phenyl-amino) carbonyl]-3,4-tetrazolium]bis(4-methoxy-6-nitro)-, sodium salt, was obtained from Starks Associates, Inc.
# Method: Test compounds were dissolved in dimethylsulfoxide to 5 mg/ml and serially diluted into RPMI medium to ten times the desired final concentration. MT-2 cells (5×10^4 /0.1 mL) were added to each well of a 96 well culture plate and 0.02 mL of the appropriate test compound solution was added to the cells such that each compound concentration was present in two wells. The cells and compounds were allowed to sit for 30 minutes at room temperature. […] The percentage of cells protected from virus induced cell death was determined by the degree of metabolism of the tetrazolium dye, XTT. In living cells, XTT was metabolized to a colored formazan product which was quantitated spectrophotometrically at 450 nm. […]
# In the Tables herein the IC90 values were determined using the assay conditions described above under HIV Low Multiplicity Assay. […]
# [2] = target: T1, HIV-1 protease (Human immunodeficiency virus type 1 group M subtype B, UniProt P04585); assay: HIV Protease Inhibition Assay - HPLC Method; assay type: biochemical; conditions: single-chain tethered dimer of HIV protease, pH 5.5
# T1 construct: synthetic gene coding for a single-chain tethered dimer of HIV protease; second copy of HIV protease joined in the same chain by a tether (single-chain tethered dimer); made in house
# Experimental: Protease: Inclusion bodies of E. coli harboring plasmid containing plasmid T1718R with a synthetic gene coding for a single-chain tethered dimer of HIV protease were prepared as described in Cheng et al. (Proc. Natl. Acad. Sci. USA, 87, 9660-9664, 1990). Active protease was prepared as described therein by extraction with 67% acetic acid, dilution 33-fold with water, dialysis against water and then against a "refolding buffer" consisting of 20 mM MES, 1 mM dithiothreitol and 10% glycerol. Protease was stored as a stock preparation at 10 uM in refolding buffer. […]
# HPLC measurement of product formation: The product (aminobenzoyl-Ala--Thr--His--Gln--Val--Tyr) was separated from substrate on a Pharmacia MonoQ anion exchange column. […] Detection with a Shimadzu model RF535 fluorescence monitor was at 330 nm (excitation) and 430 (emission). The Ki was calculated from the formula Ki=I/(((Km+S-FA*S)/(FA*Km))-1) where I=inhibitory concentration, S=substrate concentration, FA=fractional activity=cm peak height with inhibitor/cm peak height without inhibitor, and Km=Michaelis constant=20 uM.
# In the Tables herein the Ki values were determined using the assay conditions described above under HIV Protease Inhibition Assay-HPLC Method. […]
Structure (SMILES),IC90 [1],Ki [2]
O=C1N[C@H](Cc2ccccc2)[C@H](O)CN[C@H]1Cc1ccccc1 [Example 1],< 10 µg/mL,< 10 nM
O=C1N[C@H](Cc2ccccc2)[C@H](O)CN(Cc2ccccc2)[C@H]1Cc1ccccc1 [Example 24],< 10 µg/mL,10 to 1000 nM
